Test results published in US9694019B2, “Compositions and methods for treating bone diseases and broken bones” (BRIGHAM YOUNG UNIVERSITY, priority 2011, dated 2017).

Experiments:
MC3T3-E1 cells = assay: Quantitative spectroscopic ALP (alkaline phosphatase) assay in MC3T3-E1 cells; type: cell-based; details: MC3T3-E1 day 4 of differentiation, with or without 200 ng/mL rhBMP-2 and 50 μM sodium alginate; compared with CSA-90 (FIG. 4)
Procedure: MC3T3-E1 cells at day 4 of differentiation were treated with or without 200 ng/mL rhBMP-2 (recombinant human BMP-2), 0-50 μM CSA-90, and with or without 50 μM sodium alginate. Quantitative spectroscopic ALP (alkaline phosphatase) assays were performed in on multiple wells and normalized to viable cell number. Experimental assays were carried out twice independently. Data for this analysis is provided in FIG. 4 (from left to right 0, 0.5, 1, 5, 10, 25, and 50 μM CSA-90 were tested with or without BMP-2 and Algin).

quadriceps of mice = assay: Ectopic bone formation in quadriceps of mice (muscle pouch model), XR and microCT; type: in vivo
Procedure: 10 μg rhBMP-2 was implanted into the quadriceps of mice with 0, 25 μg, or 250 μg CSA-90. A control group received 250 μg CSA-90 alone (without rhBMP-2). Bone was allowed to form ectopically over 3 weeks. Specimens were then harvested for XR (FIG. 5) and microCT (FIG. 7).
MicroCT scans were performed on all samples using a Skyscan 1174 microCT scanner. Scanning data confirmed increases in bone volume (BV) with the addition of CSA-90 (See FIG. 6).

primary human MSC cells = assay: BMP regulation: gene expression array (SABiosciences PAHS-026) in primary human MSC cells; type: cell-based; details: hMSC, 8 hours
Procedure: SABisosciences custom array plates (Cat#PAHS-026) were used to measure BMP expression. These array plates are validated for efficiency when used at recommended conditions and reagents. On day 1, primary human MSC cells were plated at 200,000 cell/well using 6-well plates with 10% FBS, Penicillin and Streptomycin 10 mL per Liter, in recommended media. Only early passages of cells were used.
On day 2, cells were treated with compounds dissolved in DMSO diluted 1:1000 or more to avoid solvent effects. A non-treated negative control group was evaluated (FIG. 1, “Control Group”) along with a positive control group containing PS1 at 0.1 μM (FIG. 1, “Group 1”). Final testing concentration for CSA-90 was 5.0 μM (FIG. 1, “Group 2”), 2.5 μM (FIG. 1, “Group 3”), and 1.2 μM (FIG. 1, “Group 4”). Treatment lasted 8 hours, followed by RNA isolation using a QIAGEN Miniprep Kit. RNA was measured at 260/280 nm using NanoDrop2000 and normalized to 250 ng. cDNA preparation was done using QIAGEN First Strand kit.

[1] = v. untreated control, concentration not given

CCCCCCCCNCCC[C@@H](C)[C@H]1CC[C@H]2[C@@H]3[C@H](OCCCN)C[C@@H]4C[C@H](OCCCN)CC[C@]4(C)[C@H]3C[C@H](OCCCN)[C@]12C [CSA-13]
ALP (alkaline phosphatase) activity normalized to viable cell number (MC3T3-E1 cells): Comparable results

CCCCCN(CCCCC)CCC[C@@H](C)[C@H]1CC[C@H]2[C@@H]3[C@H](OCCCN)C[C@@H]4C[C@H](OCCCN)CC[C@]4(C)[C@H]3C[C@H](OCCCN)[C@]12C [CSA-90]
increase in bone volume (BV) vs rhBMP-2 alone (quadriceps of mice; 25 μg with 10 μg rhBMP-2, mice quadriceps, 3 weeks, microCT, parametric P=0.02, nonparametric P<0.01): statistically significant | bone formation, CSA alone (quadriceps of mice; 250 μg alone without rhBMP-2, muscle pouch model, mice, 3 weeks, microCT (FIG. 7)): appears to also result in bone formation | increase in bone volume (BV) vs rhBMP-2 alone (quadriceps of mice; 250 μg with 10 μg rhBMP-2, mice quadriceps, 3 weeks, microCT, parametric P<0.01, nonparametric P<0.01): statistically significant | increase of ectopic bone volume induced by rhBMP-2 treatment (quadriceps of mice; mice quadriceps, 10 μg rhBMP-2 plus CSA-90, 3 weeks, microCT, vs rhBMP-2 alone): about 3.2 fold | up-regulation of BMP-2 mRNA expression (primary human MSC cells; 5 μM concentration): ~6 fold | Fold Up-Regulation ACTB (Actin, beta) (primary human MSC cells; [1]): −4.1173 fold | Fold Up-Regulation AHSG (Alpha-2-HS-glycoprotein) (primary human MSC cells; [1]): 1.4077 fold | Fold Up-Regulation ALPL (Alkaline phosphatase, liver/bone/kidney) (primary human MSC cells; [1]): −5.8397 fold | Fold Up-Regulation AMBN (Ameloblastin) (primary human MSC cells; [1]): −1.0298 fold | Fold Up-Regulation AMELY (Amelogenin, Y-linked) (primary human MSC cells; [1]): −1.008 fold | Fold Up-Regulation ANXA5 (Annexin A5) (primary human MSC cells; [1]): −1.0287 fold | Fold Up-Regulation BGLAP (Bone gamma-carboxyglutamate (gla) protein) (primary human MSC cells; [1]): −1.1336 fold | Fold Up-Regulation BGN (Biglycan) (primary human MSC cells; [1]): −2.2679 fold | Fold Up-Regulation BMP-1 (Bone morphogenetic protein 1) (primary human MSC cells; [1]): −1.4719 fold | Fold Up-Regulation BMP-2 (Bone morphogenetic protein 2) (primary human MSC cells; [1]): 6.7295 fold | Fold Up-Regulation BMP-3 (Bone morphogenetic protein 3) (primary human MSC cells; [1]): 1.3888 fold | Fold Up-Regulation BMP-4 (Bone morphogenetic protein 4) (primary human MSC cells; [1]): −3.7558 fold | Fold Up-Regulation BMP-5 (Bone morphogenetic protein 5) (primary human MSC cells; [1]): 2.1036 fold | Fold Up-Regulation BMP-6 (Bone morphogenetic protein 6) (primary human MSC cells; [1]): 14.8826 fold | Fold Up-Regulation CALCR (CALCITONIN RECEPTOR) (primary human MSC cells; [1]): 2.1036 fold | Fold Up-Regulation CD36 (CD36 molecule, thrombospondin receptor) (primary human MSC cells; [1]): −2.3276 fold | Fold Up-Regulation CDH11 (Cadherin 11, type 2, OB-cadherin) (primary human MSC cells; [1]): −2.6119 fold | Fold Up-Regulation COL1A1 (Collagen, type I, alpha 1) (primary human MSC cells; [1]): −1.9589 fold | Fold Up-Regulation COL1A2 (Collagen, type I, alpha 2) (primary human MSC cells; [1]): −1.525 fold | Fold Up-Regulation COL2A1 (Collagen, type II, alpha 1) (primary human MSC cells; [1]): 1.0817 fold | Fold Up-Regulation COL3A1 (Collagen, type III, alpha 1) (primary human MSC cells; [1]): 1.1521 fold | Fold Up-Regulation COL4A3 (Collagen, type IV, alpha 3) (primary human MSC cells; [1]): −9.7105 fold | Fold Up-Regulation COL5A1 (Collagen, type V, alpha 1) (primary human MSC cells; [1]): −1.603 fold | Fold Up-Regulation COL10A1 (Collagen, type X, alpha 1) (primary human MSC cells; [1]): 1.0439 fold | Fold Up-Regulation COL11A1 (Collagen, type XI, alpha 1) (primary human MSC cells; [1]): −2.8055 fold | Fold Up-Regulation COL12A1 (Collagen, type XII, alpha 1) (primary human MSC cells; [1]): −1.366 fold | Fold Up-Regulation COL14A1 (Collagen, type XIV, alpha 1) (primary human MSC cells; [1]): 1.0661 fold | Fold Up-Regulation COL15A1 (Collagen, type XV, alpha 1) (primary human MSC cells; [1]): 1.1217 fold | Fold Up-Regulation COMP (Cartilage oligomeric matrix protein) (primary human MSC cells; [1]): 1.5909 fold | Fold Up-Regulation CSF2 (Colony stimulating factor 2) (primary human MSC cells; [1]): 3.2231 fold | Fold Up-Regulation CSF3 (Colony stimulating factor 3) (primary human MSC cells; [1]): 1.3504 fold | Fold Up-Regulation CTSK (Cathepsin K) (primary human MSC cells; [1]): 1.0843 fold | Fold Up-Regulation DMP1 (Dentin matrix acidic phosphoprotein 1) (primary human MSC cells; [1]): 2.1036 fold | Fold Up-Regulation DSPP (Dentin sialophosphoprotein) (primary human MSC cells; [1]): 2.1036 fold | Fold Up-Regulation EGF (Epidermal growth factor) (primary human MSC cells; [1]): −1.3949 fold | Fold Up-Regulation EGFR (Epidermal growth factor receptor) (primary human MSC cells; [1]): 1.0894 fold | Fold Up-Regulation ENAM (Enamelin) (primary human MSC cells; [1]): 2.1036 fold | Fold Up-Regulation FGF1 (Fibroblast growth factor 1) (primary human MSC cells; [1]): −1.7551 fold | Fold Up-Regulation FGF2 (Fibroblast growth factor 2) (primary human MSC cells; [1]): −1.0498 fold | Fold Up-Regulation FGF3 (Fibroblast growth factor 3) (primary human MSC cells; [1]): −1.5325 fold | Fold Up-Regulation FGFR1 (Fibroblast growth factor receptor 1) (primary human MSC cells; [1]): −1.5568 fold | Fold Up-Regulation FGFR2 (Fibroblast growth factor receptor 2) (primary human MSC cells; [1]): −3.1961 fold | Fold Up-Regulation FLT1 (Fms-related tyrosine kinase 1) (primary human MSC cells; [1]): −2.1823 fold | Fold Up-Regulation FN1 (Fibronectin 1) (primary human MSC cells; [1]): −1.4863 fold | Fold Up-Regulation GAPDH (Glyceraldehyde-3-phosphate dehydrogenase) (primary human MSC cells; [1]): −1.0501 fold | Fold Up-Regulation GDF10 (Growth differentiation factor 10) (primary human MSC cells; [1]): 2.1036 fold | Fold Up-Regulation ICAM1 (Intercellular adhesion molecule 1) (primary human MSC cells; [1]): 1.3786 fold | Fold Up-Regulation IGF1 (Insulin-like growth factor 1) (primary human MSC cells; [1]): 15.8816 fold | Fold Up-Regulation IGF1R (Insulin-like growth factor 1 receptor) (primary human MSC cells; [1]): 1.6854 fold | Fold Up-Regulation IGF2 (Insulin-like growth factor 2) (primary human MSC cells; [1]): −2.6412 fold | Fold Up-Regulation ITGA1 (Integrin, alpha 1) (primary human MSC cells; [1]): 1.2807 fold | Fold Up-Regulation ITGA2 (Integrin, alpha 2) (primary human MSC cells; [1]): 1.6174 fold | Fold Up-Regulation ITGA3 (Integrin, alpha 3) (primary human MSC cells; [1]): −2.1172 fold | Fold Up-Regulation ITGAM (Integrin, alpha M) (primary human MSC cells; [1]): 2.5974 fold | Fold Up-Regulation ITGB1 (Integrin, beta 1) (primary human MSC cells; [1]): −1.3007 fold | Fold Up-Regulation MMP2 (Matrix metallopeptidase 2) (primary human MSC cells; [1]): −1.6002 fold | Fold Up-Regulation MMP8 (Matrix metallopeptidase 8) (primary human MSC cells; [1]): −1.0189 fold | Fold Up-Regulation MMP9 (Matrix metallopeptidase 9) (primary human MSC cells; [1]): 2.0169 fold | Fold Up-Regulation MMP10 (Matrix metallopeptidase 10) (primary human MSC cells; [1]): 2.1233 fold | Fold Up-Regulation MSX1 (Msh homeobox 1) (primary human MSC cells; [1]): −1.1393 fold | Fold Up-Regulation NFKB1 (Nuclear factor of kappa light polypeptide gene enhancer in B-cells 1) (primary human MSC cells; [1]): 1.0365 fold | Fold Up-Regulation PDGFA (Platelet-derived growth factor alpha polypeptide) (primary human MSC cells; [1]): −1.1381 fold | Fold Up-Regulation PHEX (Phosphate regulating endopeptidase homolog, X-linked) (primary human MSC cells; [1]): −2.0881 fold | Fold Up-Regulation RUNX2 (Runt-related transcription factor 2) (primary human MSC cells; [1]): −1.1998 fold | Fold Up-Regulation SCARB1 (Scavenger receptor class B, member 1) (primary human MSC cells; [1]): −2.7137 fold | Fold Up-Regulation SERPIN H1 (Serpin peptidase inhibitor, clade H, member 1) (primary human MSC cells; [1]): −2.6434 fold | Fold Up-Regulation SMAD1 (SMAD family member 1) (primary human MSC cells; [1]): −1.2436 fold | Fold Up-Regulation SMAD2 (SMAD family member 2) (primary human MSC cells; [1]): −1.2016 fold | Fold Up-Regulation SMAD3 (SMAD family member 3) (primary human MSC cells; [1]): −2.8152 fold | Fold Up-Regulation SMAD4 (SMAD family member 4) (primary human MSC cells; [1]): −1.0529 fold | Fold Up-Regulation STATH (Statherin) (primary human MSC cells; [1]): 2.5891 fold | Fold Up-Regulation TFIP11 (Tuftelin interacting protein 11) (primary human MSC cells; [1]): −1.6592 fold | Fold Up-Regulation TGFB1 (Transforming growth factor, beta 1) (primary human MSC cells; [1]): −1.3031 fold | Fold Up-Regulation TGFB2 (Transforming growth factor, beta 2) (primary human MSC cells; [1]): 1.619 fold | Fold Up-Regulation TGFB3 (Transforming growth factor, beta 3) (primary human MSC cells; [1]): 3.2853 fold | Fold Up-Regulation TGFBR1 (Transforming growth factor, beta receptor 1) (primary human MSC cells; [1]): 1.5219 fold | Fold Up-Regulation TGFBR2 (Transforming growth factor, beta receptor II) (primary human MSC cells; [1]): −1.7799 fold | Fold Up-Regulation TNF (Tumor necrosis factor) (primary human MSC cells; [1]): 2.7072 fold | Fold Up-Regulation TUFT1 (Tuftelin 1) (primary human MSC cells; [1]): −4.5431 fold | Fold Up-Regulation TWIST1 (Twist homolog 1) (primary human MSC cells; [1]): −1.6813 fold | Fold Up-Regulation VCAM1 (Vascular cell adhesion molecule 1) (primary human MSC cells; [1]): −1.1098 fold | Fold Up-Regulation VDR (Vitamin D (1,25-dihydroxyvitamin D3) receptor) (primary human MSC cells; [1]): −6.6007 fold | Fold Up-Regulation VEGFA (Vascular endothelial growth factor A) (primary human MSC cells; [1]): 1.3548 fold | Fold Up-Regulation VEGFB (Vascular endothelial growth factor B) (primary human MSC cells; [1]): 1.2749 fold
